The values below come from patent publication US10532040B2, “Methods of treating cancer with herbacetin” (REGENTS OF THE UNIVERSITY OF MINNESOTA, priority 2011, dated 2020).

One series relates to C57BL/6J-ApcMin+ mice. Put plainly: APCMin+ mouse colon cancer prevention pilot study, IP, 15 weeks. The format is in vivo. The procedure:
The anti-cancer effect of herbacetin in vivo has also been shown. Herbacetin prevents colon cancer development in […]57BL/6J-ApcMin+ were divided into […] and injected IP with vehicle or 1 of 2 amounts of herbacetin in vehicle. The doses included 0, 0.4, or 2 mg/kg B.W. herbacetin injected IP (n=15 total, 5 per group; Table 1). APC-min mice were 5 weeks old at the beginning of the study and received herbacetin for 15 weeks 5 days/week.

Series [1] relates to SKH-1 hairless mice, DMBA/TPA-induced skin tumors. Description: DMBA/TPA two-stage skin carcinogenesis mouse model, 20 weeks. The format is in vivo. The text has this: Hairless SKH:HR-1-hrBr (SKH-1) mice were obtained from Charles River and were maintained under “specific pathogen-free” conditions following the guidelines established by the University of Minnesota Institutional Animal Care and Use Committee. Mice (8˜9 weeks old) were divided into five groups: 1) DMBA+vehicle group (n=20); 2) DMBA-initiated (200 nmol) and TPA-promoted group (17 nmol; n=20); 3) DMBA/TPA+100 nmol of herbacetin (n=20) group; 4) DMBA/TPA+500 nmol of herbacetin group (n=20); 5) DMBA+500 nmol of herbacetin group (n=20). One week after initiation, 17 nmol of TPA in acetone was topically applied twice weekly until the termination of the experiment at 20 weeks. When used, each dose of herbacetin was dissolved in 0.2 ml of 10% H2O in acetone and then topically applied to dorsal mouse skin at 30 min before TPA treatment. The number and volume of tumors per mouse was recorded weekly. The results are expressed as the percent of mice with tumors (incidence), average tumor volumes (size) and average number of tumors per mouse (multiplicity).

Series [2] concerns SKH-1 hairless mice, DMBA/TPA. Description: TPA-induced skin cancer prevention study, 30 weeks (Example 2). The format is in vivo, mouse. The procedure: For the effect of herbacetin on preventing TPA-induced skin cancer, SKH-1 hairless mice were divided into 5 groups of 26-30 mice/group. All mice were initiated with 200 nmol DMBA applied topically on the dorsal surface. Two weeks later, TPA (17 nmol) was applied topically on the dorsal surface twice a week for a total of 30 weeks. Four groups of mice were treated with herbacetin (20, 100, 200, or 500 nmol) 30 min before application of TPA.

Series [3] has as its system HCT116, DLD1, HT29 colon cancer cells. Description: growth of colon cancer cells, MTS assay. The format is cell-based. The procedure: (§1) FIGS. 3A-3H. Anticancer effect of herbacetin. (a) The effect of herbacetin on ODC activity in colon cancer cell lines was measured as the release of CO2 from L-[1-C^14] ornithine. […] (b) The effect of herbacetin and DFMO on the growth of colon cancer cells and (c) TPA-induced JB6 cell growth was compared. Cells were incubated for 72 h and growth was estimated using the MTS assay. (d) The effect of herbacetin on anchorage independent HCT116 colon cancer cell growth and (e) TPA-induced JB6 cell transformation was assessed. Cells were incubated for 2 weeks and then colonies were counted using a microscope and the Image-Pro PLUS (v.6) computer software program. The effect of herbacetin on AP-1 reporter activity in (f) HCT116 colon cancer cells and (g) TPA-induced AP-1 reporter activity in JB6 mouse epidermal cells was analyzed using the substrates included in the reporter assay system. Data are represented as means±S.D. of triplicate values from three independent experiments and the asterisk (*) indicates a significant (p<0.05) effect of herbacetin or DFMO compared to untreated or TPA-treated controls. (h) The effect of herbacetin on the phosphorylation of ERK1 and ERK2 in HCT116 colon cancer cells was determined by Western blotting. Similar results were observed from two independent experiments.

For series [4], the system named is HCT116 colon cancer cells. Put plainly: anchorage independent HCT116 colon cancer cell growth. The format is cell-based. The procedure:
as §1

The test system of the next series is JB6 epidermal cells. Put plainly: TPA-induced JB6 cell transformation. The format is cell-based, mouse. The conditions noted are these: 2 weeks. On the procedure: as §1
Series [5] relates to activator protein-1 (AP-1). Description: TPA-induced AP-1 reporter activity in JB6 cells. The format is cell-based, mouse. Particulars: JB6 cells pre-treated 2 h, then TPA 48 h. The procedure: as §1, with “Data are represented as means±S.D. of triplicate values from three independent experiments and the asterisk (*) indicates a significant (p<0.05) effect of herbacetin or DFMO compared to untreated or TPA-treated controls.” left out, “Similar results were observed from two independent experiments.” left out
(§2) We determined whether herbacetin affected the reporter activity of the MAP kinase target transcription factor, activator protein-1 (AP-1), in HCT116 cells or JB6 cells stimulated with TPA. […] AP-1 reporter activity was then measured (FIG. 3f, g) and the activity was attenuated by herbacetin in colon cancer cells and in TPA-activated JB6 cells. […]

For another series, the system named is ERK1/2, p90^RSK. Put plainly: Western blotting of ERK1/2 and p90RSK phosphorylation in HCT116 cells. The format is cell-based. On the procedure: as §1, with “Data are represented as means±S.D. of triplicate values from three independent experiments and the asterisk (*) indicates a significant (p<0.05) effect of herbacetin or DFMO compared to untreated or TPA-treated controls.” left out, “Similar results were observed from two independent experiments.” left out
as §2
Background: A western blot detects proteins with antibodies after separation by electrophoresis.

The mark [6] stands for this setting: 0.4 or 2 mg/kg BW IP, 15 weeks, 5 days/week.
Setting [7] is: herbacetin 100 or 500 nmol topical before TPA, relative to TPA-treated group.

Turning to `O=c1c(O)c(-c2ccc(O)cc2)oc2c(O)c(O)cc(O)c12` [herbacetin, 3,5,7,8,4′-Pentahydroxyflavone], in the series with C57BL/6J-ApcMin+ mice (setting [6]), the colon tumor number result is “fewer” and the colon tumor size result is “smaller”. The body weight result with C57BL/6J-ApcMin+ mice (APCMin+ mice) was “no effect”. In series [1] (DMBA + 500 nmol herbacetin, no TPA), the “tumors in herbacetin only (no TPA) group” value was “No tumors were observed”. For the same compound, the “ODC activity in skin tumors” value in series [1] (TPA-induced skin tumor tissue) is “significantly inhibited ODC activity”. Besides, in series [1] (setting [7]), the “number of skin tumors” value was “strongly suppressed” and the “volume of skin tumors” value was “strongly suppressed”. The “ODC downstream proteins such as ERK and RSK in skin tumors” value in series [1] (immunoblot of TPA-induced skin tumors) is on record as “strongly suppressed”. The “tumor growth induced by TPA” value in series [2] (herbacetin 20, 100, 200 or 500 nmol 30 min before TPA, 30 weeks) is recorded as “decreased tumor growth”. Further, in series [2] (vs untreated control mice), the “mice developing papillomas (incidence)” value was “Fewer mice developed papillomas” and the number of papillomas result is listed as “fewer papillomas (dose-dependent)”. In series [2] (vs untreated controls), the tumor size entry is “significantly smaller tumors”. Besides, the “inhibitory effect on growth of colon cancer cell lines” value in series [3] (72 h, MTS, HCT116, DLD1, HT29) was “greatest inhibitory effect on colon cancer cells that expressed higher levels of ODC”. The “proliferation and anchorage independent cell growth of several colon cancer cell lines” value in series [3] (preliminary data) is “decrease proliferation and anchorage independent cell growth”. For the same compound, the “effectiveness relative to DFMO in suppressing anchorage independent growth” value in series [4] (HCT116, 2 weeks) is listed as “at least 20 fold”. Besides, the “potency relative to DFMO” value in series [4] (general statement, test not specified) is reported as 20-50 times. In addition, in the series with JB6 epidermal cells, the “TPA-induced neoplastic transformation of JB6 epidermal cells” value is listed as “markedly suppressed”. The AP-1 reporter activity entry in series [5] is reported as “attenuated”. Moreover, in the series on ERK1/2, p90^RSK, the “phosphorylation of ERK1/2 and p90^RSK” value is “suppressed phosphorylation”.
